#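 Cultured in 96-well plates, cells were exposed to test compound for 48 hours across five concentrations. TGI denotes the concentration required for complete inhibition of growth.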 *1 amine or outer side, *2 acyl side, *3 side chain or, on linkers, in order; H or OH if unused. Where a SMILES comes first, the peptide text is derived from it. Bridges are numbered along the chain shown (N, C = ends). [ ]: non-standard residue; d: D form. X59 = COc1c(N[*:1])cccc1C(=O)O[C@H](C(=O)[C@H](C)C(=O)[*:2])C(C)C; X58 = CC(C)C[C@H](C(=O)[*:2])C(C)C(=O)C1CCCN1[*:1]; NMeY = CN[C@@H](Cc1ccc(O)cc1)C(=O)O; Lac = C[C@H](O)C(=O)O
# Tests used:
# Experiment in all cases: growth of human tumour cells (NCI), 48 h
# SNB-75 CNS = system: SNB-75 CNS
# SW-620 colon = system: SW-620 colon
# NCI-H522 lung = system: NCI-H522 lung
# NCI-H23 lung = system: NCI-H23 lung
# SK-MEL-2 melanoma = system: SK-MEL-2 melanoma
# U251 CNS = system: U251 CNS
# NCI-H460 lung = system: NCI-H460 lung
# ACHN renal = system: ACHN renal
# SK-MEL-28 melanoma = system: SK-MEL-28 melanoma
# HCT-116 colon = system: HCT-116 colon
# HS 578T breast = system: HS 578T breast
# UACC-62 melanoma = system: UACC-62 melanoma
# SR leukemia = system: SR leukemia
# KM12 colon = system: KM12 colon
# MDA-MB-231 breast = system: MDA-MB-231 breast
# SNB-19 CNS = system: SNB-19 CNS
# SF-539 CNS = system: SF-539 CNS
# DU-145 prostate = system: DU-145 prostate
# CCRF-CEM leukemia = system: CCRF-CEM leukemia
# HT29 colon = system: HT29 colon
# OVCAR-8 ovarian = system: OVCAR-8 ovarian
# OVCAR-3 ovarian = system: OVCAR-3 ovarian
# OVCAR-4 ovarian = system: OVCAR-4 ovarian
# UO-31 renal = system: UO-31 renal
# 786-0 renal = system: 786-0 renal
# HCT-15 colon = system: HCT-15 colon
# EKVX NSCLC = system: EKVX NSCLC
# IGROV1 ovarian = system: IGROV1 ovarian
# MDA-MB-435 = system: MDA-MB-435
# TK-10 renal = system: TK-10 renal
# OVCAR-5 ovarian = system: OVCAR-5 ovarian
# SN12C renal = system: SN12C renal
# MOLT-4 leukemia = system: MOLT-4 leukemia
# A549 NSCLC = system: A549 NSCLC
# PC-3 prostate = system: PC-3 prostate
# SF-268 CNS = system: SF-268 CNS
# HCC-2998 colon = system: HCC-2998 colon
# SK-MEL-5 melanoma = system: SK-MEL-5 melanoma
# HL-60(TB) leukemia = system: HL-60(TB) leukemia
# MCF7 breast = system: MCF7 breast
# COLO 205 colon = system: COLO 205 colon
# HOP-62 NSCLC = system: HOP-62 NSCLC
# BT-549 breast = system: BT-549 breast
# MDA-N = system: MDA-N
# M14 melanoma = system: M14 melanoma
# LOX IMVI melanoma = system: LOX IMVI melanoma
# HOP-92 NSCLC = system: HOP-92 NSCLC
# NCI/ADR-RES ovarian = system: NCI/ADR-RES ovarian
# CAKI-1 renal = system: CAKI-1 renal
# UACC-257 melanoma = system: UACC-257 melanoma
# T-47D breast = system: T-47D breast
# RPMI-8226 leukemia = system: RPMI-8226 leukemia
# MALME-3M melanoma = system: MALME-3M melanoma
# K-562 leukemia = system: K-562 leukemia
# SF-295 CNS = system: SF-295 CNS
# SK-OV-3 ovarian = system: SK-OV-3 ovarian
# RXF 393 renal = system: RXF 393 renal
# NCI-H226 lung = system: NCI-H226 lung
smiles,measurement,setting,value
O=C1/C(=C/c2ccc(OC(=O)c3ccc(Cl)cc3)cc2)CCC/C1=C\c1ccc(OC(=O)c2ccc(Cl)cc2)cc1,TGI,SNB-75 CNS,60.8 µM
same,TGI,SW-620 colon,> 100 µM
same,TGI,NCI-H522 lung,> 100 µM
same,TGI,NCI-H23 lung,> 100 µM
same,TGI,SK-MEL-2 melanoma,> 100 µM
same,TGI,U251 CNS,> 100 µM
same,TGI,NCI-H460 lung,> 100 µM
same,TGI,ACHN renal,> 100 µM
same,TGI,SK-MEL-28 melanoma,> 100 µM
same,TGI,HCT-116 colon,> 100 µM
same,TGI,HS 578T breast,> 100 µM
same,TGI,UACC-62 melanoma,> 100 µM
same,TGI,SR leukemia,> 100 µM
same,TGI,KM12 colon,> 100 µM
same,TGI,MDA-MB-231 breast,> 100 µM
same,TGI,SNB-19 CNS,> 100 µM
same,TGI,SF-539 CNS,> 100 µM
same,TGI,DU-145 prostate,> 100 µM
same,TGI,CCRF-CEM leukemia,> 100 µM
same,TGI,HT29 colon,> 100 µM
same,TGI,OVCAR-8 ovarian,> 100 µM
same,TGI,OVCAR-3 ovarian,> 100 µM
same,TGI,OVCAR-4 ovarian,> 100 µM
same,TGI,UO-31 renal,> 100 µM
same,TGI,786-0 renal,> 100 µM
same,TGI,HCT-15 colon,> 100 µM
same,TGI,EKVX NSCLC,> 100 µM
same,TGI,IGROV1 ovarian,> 100 µM
same,TGI,MDA-MB-435,> 100 µM
same,TGI,TK-10 renal,> 100 µM
same,TGI,OVCAR-5 ovarian,> 100 µM
same,TGI,SN12C renal,> 100 µM
same,TGI,MOLT-4 leukemia,> 100 µM
same,TGI,A549 NSCLC,> 100 µM
same,TGI,PC-3 prostate,> 100 µM
same,TGI,SF-268 CNS,> 100 µM
same,TGI,HCC-2998 colon,> 100 µM
same,TGI,SK-MEL-5 melanoma,> 100 µM
same,TGI,HL-60(TB) leukemia,> 100 µM
same,TGI,MCF7 breast,> 100 µM
same,TGI,COLO 205 colon,> 100 µM
same,TGI,HOP-62 NSCLC,> 100 µM
same,TGI,BT-549 breast,> 100 µM
same,TGI,MDA-N,> 100 µM
same,TGI,M14 melanoma,> 100 µM
same,TGI,LOX IMVI melanoma,> 100 µM
same,TGI,HOP-92 NSCLC,> 100 µM
same,TGI,NCI/ADR-RES ovarian,> 100 µM
same,TGI,CAKI-1 renal,> 100 µM
same,TGI,UACC-257 melanoma,> 100 µM
same,TGI,T-47D breast,> 100 µM
same,TGI,RPMI-8226 leukemia,> 100 µM
N#Cc1nc(-c2ccc(-c3nc(C#N)c(N)o3)cc2)oc1N,TGI,SNB-75 CNS,> 10 µM
same,TGI,SW-620 colon,> 10 µM
same,TGI,NCI-H522 lung,> 10 µM
same,TGI,NCI-H23 lung,> 10 µM
same,TGI,NCI-H460 lung,> 10 µM
same,TGI,ACHN renal,> 10 µM
same,TGI,SK-MEL-28 melanoma,> 10 µM
same,TGI,HCT-116 colon,> 10 µM
same,TGI,HS 578T breast,> 10 µM
same,TGI,UACC-62 melanoma,> 10 µM
same,TGI,MALME-3M melanoma,> 10 µM
same,TGI,SR leukemia,> 10 µM
same,TGI,KM12 colon,> 10 µM
same,TGI,MDA-MB-231 breast,> 10 µM
same,TGI,SNB-19 CNS,> 10 µM
same,TGI,SF-539 CNS,> 10 µM
same,TGI,DU-145 prostate,> 10 µM
same,TGI,CCRF-CEM leukemia,> 10 µM
same,TGI,HT29 colon,> 10 µM
same,TGI,OVCAR-8 ovarian,> 10 µM
same,TGI,OVCAR-4 ovarian,> 10 µM
same,TGI,UO-31 renal,> 10 µM
same,TGI,786-0 renal,> 10 µM
same,TGI,HCT-15 colon,> 10 µM
same,TGI,EKVX NSCLC,> 10 µM
same,TGI,IGROV1 ovarian,> 10 µM
same,TGI,MDA-MB-435,> 10 µM
same,TGI,TK-10 renal,> 10 µM
same,TGI,K-562 leukemia,> 10 µM
same,TGI,SN12C renal,> 10 µM
same,TGI,MOLT-4 leukemia,> 10 µM
same,TGI,A549 NSCLC,> 10 µM
same,TGI,SF-295 CNS,> 10 µM
same,TGI,PC-3 prostate,> 10 µM
same,TGI,SF-268 CNS,> 10 µM
same,TGI,HCC-2998 colon,> 10 µM
same,TGI,SK-MEL-5 melanoma,> 10 µM
same,TGI,HL-60(TB) leukemia,> 10 µM
same,TGI,MCF7 breast,> 10 µM
same,TGI,COLO 205 colon,> 10 µM
same,TGI,HOP-62 NSCLC,> 10 µM
same,TGI,BT-549 breast,> 10 µM
same,TGI,MDA-N,> 10 µM
same,TGI,M14 melanoma,> 10 µM
same,TGI,SK-OV-3 ovarian,> 10 µM
same,TGI,RXF 393 renal,> 10 µM
same,TGI,LOX IMVI melanoma,> 10 µM
same,TGI,HOP-92 NSCLC,> 10 µM
same,TGI,NCI/ADR-RES ovarian,> 10 µM
same,TGI,CAKI-1 renal,> 10 µM
same,TGI,UACC-257 melanoma,> 10 µM
same,TGI,T-47D breast,> 10 µM
same,TGI,RPMI-8226 leukemia,> 10 µM
same,TGI,NCI-H226 lung,> 10 µM
COc1ccc(C[C@H]2C(=O)O[C@H](C)[C@H](NC(=O)[C@@H](CC(C)C)C(C)C(=O)C3CCCN3C(=O)[C@H](C)O)C(=O)Nc3cccc(c3OC)C(=O)O[C@@H](C(C)C)C(=O)[C@H](C)C(=O)N[C@@H](CC(C)C)C(=O)N3CCC[C@H]3C(=O)N2C)cc1 (some centres not stated) (H-[Lac][X58]T[X59]LP[NMeY](Me); ester 3-C),TGI,SNB-75 CNS,> 12.5 µM
same,TGI,SW-620 colon,> 12.5 µM
same,TGI,NCI-H522 lung,> 12.5 µM
same,TGI,NCI-H23 lung,> 12.5 µM
same,TGI,SK-MEL-2 melanoma,> 12.5 µM
same,TGI,U251 CNS,> 12.5 µM
same,TGI,NCI-H460 lung,> 12.5 µM
same,TGI,ACHN renal,> 12.5 µM
same,TGI,SK-MEL-28 melanoma,> 12.5 µM
same,TGI,HCT-116 colon,> 12.5 µM
same,TGI,HS 578T breast,> 12.5 µM
same,TGI,UACC-62 melanoma,> 12.5 µM
same,TGI,MALME-3M melanoma,> 12.5 µM
same,TGI,SR leukemia,> 12.5 µM
same,TGI,KM12 colon,> 12.5 µM
same,TGI,MDA-MB-231 breast,> 12.5 µM
same,TGI,SNB-19 CNS,> 12.5 µM
same,TGI,SF-539 CNS,> 12.5 µM
same,TGI,DU-145 prostate,> 12.5 µM
same,TGI,HT29 colon,> 12.5 µM
same,TGI,OVCAR-8 ovarian,> 12.5 µM
same,TGI,OVCAR-3 ovarian,> 12.5 µM
same,TGI,OVCAR-4 ovarian,> 12.5 µM
same,TGI,UO-31 renal,> 12.5 µM
same,TGI,786-0 renal,> 12.5 µM
same,TGI,HCT-15 colon,> 12.5 µM
same,TGI,EKVX NSCLC,> 12.5 µM
same,TGI,IGROV1 ovarian,> 12.5 µM
same,TGI,MDA-MB-435,> 12.5 µM
same,TGI,TK-10 renal,> 12.5 µM
same,TGI,K-562 leukemia,> 12.5 µM
same,TGI,OVCAR-5 ovarian,> 12.5 µM
same,TGI,SN12C renal,> 12.5 µM
same,TGI,MOLT-4 leukemia,> 12.5 µM
same,TGI,A549 NSCLC,> 12.5 µM
same,TGI,SF-295 CNS,> 12.5 µM
same,TGI,PC-3 prostate,> 12.5 µM
same,TGI,SF-268 CNS,> 12.5 µM
same,TGI,HCC-2998 colon,> 12.5 µM
same,TGI,SK-MEL-5 melanoma,> 12.5 µM
same,TGI,MCF7 breast,> 12.5 µM
same,TGI,COLO 205 colon,> 12.5 µM
same,TGI,HOP-62 NSCLC,> 12.5 µM
same,TGI,BT-549 breast,> 12.5 µM
same,TGI,MDA-N,> 12.5 µM
same,TGI,M14 melanoma,> 12.5 µM
same,TGI,SK-OV-3 ovarian,> 12.5 µM
same,TGI,RXF 393 renal,> 12.5 µM
same,TGI,LOX IMVI melanoma,> 12.5 µM
same,TGI,HOP-92 NSCLC,> 12.5 µM
same,TGI,NCI/ADR-RES ovarian,> 12.5 µM
same,TGI,CAKI-1 renal,> 12.5 µM
same,TGI,UACC-257 melanoma,> 12.5 µM
same,TGI,T-47D breast,> 12.5 µM
same,TGI,RPMI-8226 leukemia,10.8 µM
same,TGI,NCI-H226 lung,> 12.5 µM
